Assay results from patent EP1127071B1, “COMPOUNDS WITH GROWTH HORMONE RELEASING PROPERTIES” (Novo Nordisk A/S, priority 1998, dated 2000).

Experiment: Pharmacokinetics after intravenous and oral administration in fasted Beagle dogs
Assay type: in vivo
Settings: compared with the compound of example 408 of WO 9723508
Protocol: The pharmakokinetic data were obtained by the following procedure:
The pharmacokinetics of the test compounds were Investigated in fasted Beagle dogs.
Intravenous and oral administration of the test compound, in 5% glucose solution, was separated by a one-week washout.
Blood samples were collected immediately before drug administration (time zero) and than 0.08, 0.25, 0.50, 0.75, 1.0, 1.5. 2.0, 3.0, 4.0, 5.0, and 6.0 hours after administration.
The plasma samples were stored frozen (<-18°C) pending analysis.
An HPLC method with solid phase extraction and W detection was used for the quantification of the compound in plasma.
The pharmacokinetic parameters for the compounds were calculated by non-compartmental methods using the PC based pharmacokinetic software WinNonlin, version 1.1 (Scientific Consulting Inc., Apex, NC, USA).

Structure (SMILES): CN(CCc1ccccn1)C(=O)[C@@H](Cc1ccccc1)N(C)C(=O)[C@@H](Cc1ccc2ccccc2c1)N(C)C(=O)/C=C/CC(C)(C)N [Example 1, (2E)-5-Amino-5-methylhex-2-enoic acid N-methyl-N-[(1R)-1-(N-methyl-N-{(1R)-1-[N-methyl-N-(2-(2-pyridinyl)ethyl)carbamoyl]-2-phenylethyl}carbamoyl)-2-(2-naphthyl)ethyl]amide]
- plasma half-life (administration in 5% glucose solution): shorter plasma half-life
- oral bioavailability (oral vs intravenous administration in 5% glucose solution): better oral bioavailability
